Assay results: patent US9745613B2, “Compounds, substrates and methods related to histone deacetylases” (The Broad Institute, Inc., priority 2014, dated 2017)

Tests used:
MCF7 cells [1] = assay: L1000 gene expression profiling; assay type: cell-based, human; conditions: for number of dose-responsive genes with altered expression: approximately 1,000 landmark genes
Method: Cells were incubated for 24 hours at 37° C. in a humidified incubator containing 5% CO2 before treatment.
These 1,000× stock solutions were first diluted (100-fold) in culture medium, and then the diluted compounds were transferred to the cell culture plates using CyBi-well vario 384-well tips (another 10-fold dilution). Ultimately, all compounds were diluted 1,000-fold to their desired serial concentrations with a final DMSO concentration of 0.1%. Treated cells were incubated for 24 hours prior to lysis. […] Cell lysate plates were sealed using a plate sealer, kept at room temperature for 30 minutes, and then frozen at −80° C. until L1000 gene expression profiling was performed.
In this study, we utilize L1000, a high-throughput, bead-based gene expression assay in which mRNA is extracted from cultured human cells treated with various chemical or genomic perturbagens (small molecules, gene knockdowns, or gene over-expression constructs) as previously described.^38 This mRNA is reverse-transcribed into first-strand cDNA. Gene specific probes containing barcodes and universal primer sites are annealed to the first strand cDNA. The probes are ligated to form a template for PCR. The template is PCR amplified with biotinylated-universal primers. The end products are biotinylated, fixed length, barcoded amplicons. The amplicons can then be mixed with Luminex beads that contain complementary barcodes to those encoded in each of the 1000 amplified landmark genes. These 1000 landmark genes were chosen as a reduced representation of the transcriptome and account for the majority of expression variation across many cellular contexts (Subramanian, et al., manuscript in preparation). These beads are then stained with fluorescent streptavidin-phycoerythrin (SAPE) and detected in 384-well plate format on a Luminex FlexMap flow cytometry-based scanner. The resulting readout is a measure of mean fluorescent intensity (MFI) for each landmark gene.

HDAC8 = biological target: T1, HDAC8 (Homo sapiens, UniProt Q9BY41); assay: Caliper assay, biochemical HDAC IC50; conditions: relative to PCI-34051
T1 construct: purchased BPS Bioscience
T1 sequence (Q9BY41 1-377): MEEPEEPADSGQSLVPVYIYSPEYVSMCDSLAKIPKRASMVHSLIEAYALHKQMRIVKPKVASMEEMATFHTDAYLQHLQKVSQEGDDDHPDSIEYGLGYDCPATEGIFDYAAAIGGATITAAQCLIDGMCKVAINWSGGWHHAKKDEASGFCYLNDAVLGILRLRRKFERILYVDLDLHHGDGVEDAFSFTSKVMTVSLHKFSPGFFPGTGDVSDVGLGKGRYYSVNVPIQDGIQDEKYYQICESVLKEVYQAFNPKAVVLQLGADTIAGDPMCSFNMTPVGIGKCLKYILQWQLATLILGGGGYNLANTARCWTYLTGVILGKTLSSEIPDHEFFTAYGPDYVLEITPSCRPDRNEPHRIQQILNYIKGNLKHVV
Method: The biochemical determination of HDAC ICsos for compounds was performed as described previously (Zhang, Y.-L. et al., Fluorescent substrates for determining lysine modifying enzyme activity, 2013, Patent Application WO 2013067391). All HDACs were purchased from BPS Bioscience. The substrates Broad Substrate A and Broad Substrate B were synthesized in house, but can be purchased from PerkinElmer (Product number CLS960006 and CLS960007, respectively). All other reagents were purchased from Sigma. Caliper EZ reader II system was used to collect all data. Compounds were tested in duplicate in a 12-point dose curve with 3-fold serial dilution starting from 33.33 μM. Purified HDACs were incubated with 2 μM carboxyfluorescein (FAM)-labeled acetylated or trifluoroacetylated peptide substrate (Broad Substrate A and B, respectively) and test compound for 60 min at room temperature, in an HDAC assay buffer that contained 50 mM HEPES (pH 7.4), 100 mM KCl, 0.01% BSA and 0.001% Tween-20. […] Substrate and product were separated electrophoretically and fluorescence intensity in the substrate and product peaks was determined and analyzed by Labchip EZ Reader. […] Inhibition of HDAC10 and 11 was not measured due to either low purity of the available recombinant HDAC enzyme preparations and/or lack of activity of the enzymes and low substrate conversion.

[2] = system: p21 (CDKN1A) overexpression; assay: Connectivity map query analysis of L1000 signatures across cell lines; assay type: cell-based, human; conditions: across multiple cell lines, relative to 430 overexpressed genes
From the text: To assess whether our findings extend beyond the context of a single cell type and to incorporate into our analysis orthogonal biological perturbations, we expanded our gene expression studies using L1000 into several cell lines representative of distinct tissue types: PC3 (prostate), HEPG2 (liver), HCC515 (lung), HAlE (kidney), A375 (skin), A549 (lung), HT29 (colon). […] These candidate substrates of HDAC8 may provide a more targeted approach toward specific cancers (or other diseases) driven by the dysregulation of proteins and/or genes within this HDAC8 network. […] Efforts toward defining the functional consequences of the change in acetylation of these proteins by HDAC8 are ongoing.
The raw expression data are log 2-scaled, quantile normalized, and z-scored, such that a differential expression value is achieved for each gene in each well. In the standard L1000 protocol, each well corresponds to a different perturbagen and these differential expression values are collapsed across replicate wells to yield a differential expression signature for each perturbagen. […] To assess this, we did a meta-analysis of the CMap query results (i.e., lists of perturbations ordered by similarity to an input gene expression signature). […] We performed the same analysis with BRD3811 as well. […]

MCF7 cells [3] = assay: SILAC-based global acetylation profiling; assay type: cell-based; conditions: compared to DMSO or BRD3811
From the text: Using these chemical tools, we compared the changes in global acetylation in a representative cell line known to express HDAC8 (i.e. MCF7) after treatment with each compound using Stable Isotope Labeling of Amino Acids in Cell Culture (SILAC)-based quantitative mass spectrometry (MS). (Ververis, K., Karagiannis, T. C. (2012) An atlas of histone deacetylase expression in breast cancer: fluorescence methodology for comparative semi-quantitative analysis. Am. J. Transl. Res. 4, 24-43). […] Global acetylation profiling was completed by digesting cellular proteins with trypsin and enriching the acetylated peptides by immunoprecipitation using an antibody specific for acetylated lysine residues.
MCF7 cells were grown and expanded from the same frozen vial stock, followed by differentially labeling with non-radioactive stable isotopic amino acids by growing in light, medium, and heavy SILAC media (see below for recipe), respectively (Ong, S. E., et al. Mol. Cell Proteomics 5, 376-386 (2002)). […]
EDTA, 2 μg/ml aprotinin (Sigma-Aldrich), 10 μg/ml leupeptin (Roche Applied Science), 1 mM phenylmethylsulfonyl fluoride (PMSF), and 5 mM sodium butyrate (Sigma-Aldrich). […] Protein concentrations were measured using a bicinchoninic acid (BCA) protein assay. […]

MCF-7 cells = assay: Global histone modification profiling; assay type: cell-based; conditions: 10 μM for 24 h
Method: Each row represents a unique combination of histone modifications (as denoted by “Histone Mark”) and each column represents a treatment of MCF-7 cells with the compound indicated at 10 μM for 24 h. Each compound treatment was performed in biological duplicate (R1 and R2). Each cell is colored by the log2-fold change over the average of the DMSO replicates as denoted in the scale bar. Global histone profiles were obtained in a manner essentially equivalent to a previous report. (Kim, J. H., Yu, S., Chen, J. D., Kong, A. N. (2013) The nuclear cofactor RAC3/AIB1/SRC-3 enhances Nrf2 signaling by interacting with transactivation domains. Oncogene 32, 514-527).

p21 = assay: Western blotting of p21 protein; assay type: cell-based; conditions: MCF7 cells, 10 μM, 48 h
Method: MCF7 cells were treated with compounds for 48 h, at which time, lysates were collected using RIPA buffer with added protease (Roche) and phosphatase (Roche) inhibitors. Electrophoresis was performed using NuPage 4-12% Bis-Tris gels (Invitrogen). Proteins were transferred to a nitrocellulose membrane and probed using antibodies for p21 (Cell Signaling) and GAPDH (Cell Signalling). Chemiluminescence was induced by subsequent incubation with HRP-linked secondary antibodies (GE Healthcare UK Ltd.) and treatment of the membrane with the appropriate ECL solutions (Thermo Scientific). Visualization was accomplished using a ChemiDoc MP System (Bio-Rad), and the raw data files were converted to jpegs using ImageJ (NIH).

| reduction in potency for inhibition of HDAC8 (HDAC8) | SMILES | fold_change_at_10_uM CDKN1A (202284_s_at) (MCF7 cells [1]; MCF7, 10 uM, 24 h) | fold_change_at_10_uM CSNK1A1 (206562_s_at) (MCF7 cells [1]; MCF7, 10 uM, 24 h) | fold_change_at_10_uM DUSP3 (201536_at) (MCF7 cells [1]; MCF7, 10 uM, 24 h) | fold_change_at_10_uM ERBB2 (216836_s_at) (MCF7 cells [1]; MCF7, 10 uM, 24 h) | fold_change_at_10_uM GHR (205498_at) (MCF7 cells [1]; MCF7, 10 uM, 24 h) | fold_change_at_10_uM HMGA2 (208025_s_at) (MCF7 cells [1]; MCF7, 10 uM, 24 h) | fold_change_at_10_uM HMOX1 (203665_at) (MCF7 cells [1]; MCF7, 10 uM, 24 h) | fold_change_at_10_uM PRSS23 (202458_at) (MCF7 cells [1]; MCF7, 10 uM, 24 h) | fold_change_at_10_uM SLC25A46 (212833_at) (MCF7 cells [1]; MCF7, 10 uM, 24 h) | fold_change_at_10_uM TXNRD1 (201266_at) (MCF7 cells [1]; MCF7, 10 uM, 24 h) | fold_change_at_10_uM VAT1 (208626_s_at) (MCF7 cells [1]; MCF7, 10 uM, 24 h) | level of the p21 transcript (MCF7 cells [1]; dose range 0.04 μM-10 μM, 24 h) | number of dose-responsive genes with altered expression (MCF7 cells [1]; dose range 0.04 M-10 M) [genes] | average percentile rank of similarity to p21 (CDKN1A) overexpression signature [2] [percentile] | number of dose-responsive genes with altered expression (MCF7 cells [1]; dose range 0.04 μM-10 μM) [genes] | changes in histone acetylation status (MCF7 cells [3]) | histone acetylation (MCF-7 cells) | p21 protein levels (western blot) (p21) |
| --- | --- | --- | --- | --- | --- | --- | --- | --- | --- | --- | --- | --- | --- | --- | --- | --- | --- | --- | --- |
| 1,000 fold | COc1ccc(Cn2ccc3cc(C)c(C(=O)NO)cc32)cc1 [BRD3811] | 1.956 | 1.623 | 1.586 | 1.614 | 0.7287 | 0.6073 | 2.067 | 0.6507 | 0.5635 | 1.298 | 1.389 | increased the level of p21 transcript only at the highest dose tested | 11 | 66 |  |  |  |  |
|  | COc1ccc(Cn2ccc3ccc(C(=O)NO)cc32)cc1 [PCI-34051, reference compound] |  |  |  |  |  |  |  |  |  |  |  | dose-dependent increase |  | 96 | 70 | did not observe any significant changes | not altered | increased p21 |
